The numbers were not newly measured in patent publication EP2103596A1, “Process for the preparation of N-(phenylethyl) anilines salts and solvates thereof useful as serotonin 5-HT6 antagonists” (priority 2008, dated 2009), which cites them from elsewhere.

Where two headings read alike, the source gives them in different places.

Broadly, the IC50 is the midpoint of a concentration-inhibition curve.

The conditions of series [1]: mice, sub-chronic dosing (10 and 30 mg/kg qd, i.p.).
For series [2] the following is noted: rats, sub-chronic dosing (10 and 30 mg/kg qd, i.p.).
In series [3] the test system is more than 70 tested receptors. The following applies: selectivity versus more than 70 tested receptors.
In a further series the target is CYP2D6 (Homo sapiens, UniProt P10635).
CYP2D6, sequence (P10635 whole entry): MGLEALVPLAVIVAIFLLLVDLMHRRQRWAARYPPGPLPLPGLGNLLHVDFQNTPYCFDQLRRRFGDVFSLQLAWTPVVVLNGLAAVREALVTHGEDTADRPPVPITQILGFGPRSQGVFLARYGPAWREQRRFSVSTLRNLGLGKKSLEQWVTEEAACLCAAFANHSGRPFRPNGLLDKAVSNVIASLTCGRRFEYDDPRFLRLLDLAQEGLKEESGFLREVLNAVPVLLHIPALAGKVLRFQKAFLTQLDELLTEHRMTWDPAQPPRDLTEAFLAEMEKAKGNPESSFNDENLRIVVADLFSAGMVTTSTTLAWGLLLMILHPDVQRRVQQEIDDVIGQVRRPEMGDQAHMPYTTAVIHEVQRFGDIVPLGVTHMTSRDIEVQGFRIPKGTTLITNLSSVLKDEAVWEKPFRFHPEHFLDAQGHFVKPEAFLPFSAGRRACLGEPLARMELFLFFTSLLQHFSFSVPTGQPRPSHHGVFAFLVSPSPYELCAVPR

As for `COc1cc(Cl)cc(C(C)Nc2cc(N3CCNCC3)ccc2S(C)(=O)=O)c1OC.Cl` (stereo not shown) [Compound A, [1-(5-Chloro-2,3-dimethoxy-phenyl)-ethyl]-(2-methanesulfonyl-5-piperazin-1-yl-phenyl)-amine hydrochloride salt], the “stability (HLM)” value was more than 90 min. Also, in series [1], the body weight entry is listed as “significant reduction” and the food intake result was “significant reduction”. Also, in series [2], the body weight result is reported as “significant reduction” and the food intake result was “significant reduction”. The safety margin in series [3] is given as more than 100 fold. For the same molecule, on CYP2D6, the IC50 was 7.8 µM.
